The record followed here is DBAASP.

SMILES strings stand for the structures. Values after ≈ are worked out from the molar mass of the structure shown.

Test systems include Escherichia coli ML-35; Bacillus megaterium; Escherichia coli MG1655; Bacillus subtilis 168 HT.
Assay in all cases: ≥ marks a high value that may be exact or a test limit, other limits are often not marked, values filed in µg/mL are converted to µM
Experiment [1] deals with Mycobacterium tuberculosis H37Rv.
The subject of experiment [2] is Escherichia coli DH5alpha.
Experiment [3] relates to Staphylococcus epidermidis ATCC 12228.
Experiment [4] has as its system Micrococcus luteus ATCC 4698.
Experiment [5] relates to Staphylococcus aureus ATCC 6538.
The subject of experiment [6] is Escherichia coli ATCC 11219.
Experiment [7] has as its system Pseudomonas aeruginosa ATCC 13388.
The test system of experiment [8] is Klebsiella pneumoniae ATCC 10031.
Experiment [9] deals with Salmonella enterica subsp. enterica serovar Typhimurium ATCC 14028.
Experiment [10] has as its system Staphylococcus aureus ATCC 25923.
The subject of experiment [11] is Pseudomonas aeruginosa ATCC 27853.
For experiment [12], the system named is Escherichia coli ATCC 25922.
Experiment [13] concerns Bacillus subtilis ATCC 6633.
Experiment [14] has as its system Pseudomonas aeruginosa ATCC BAA-427.

`CSCC[C@H](NC(=O)CNC(=O)[C@H](CC(C)C)NC(=O)[C@H](CCCN=C(N)N)NC(=O)[C@H](CCCN=C(N)N)NC(=O)[C@H](C)N)C(=O)N[C@@H](CC(N)=O)C(=O)N1CCC[C@H]1C(=O)N[C@@H](Cc1c[nH]c2ccccc12)C(=O)N[C@@H](CCCCN)C(=O)N[C@H](C(=O)N1CCC[C@H]1C(=O)N1CCC[C@H]1C(=O)N[C@@H](C)C(=O)N[C@@H](CCCCN)C(=O)N1CCC[C@H]1C(=O)N[C@@H](CCCCN)C(=O)NCC(=O)N[C@@H](CO)C(=O)N[C@@H](CCCCN)C(=O)O)[C@@H](C)O` [ARRLGMNPWKTPPAKPKGSK]: in [1], the MIC (as a rule, the lowest concentration found to suppress growth) is at least 90.1 µM.
As to `CC(C)C[C@H](NC(=O)[C@H](CC(C)C)NC(=O)[C@H](CCCCN)NC(=O)[C@H](CO)NC(=O)[C@@H](NC(=O)[C@@H](NC(=O)[C@H](CCCCN)NC(=O)[C@H](Cc1ccccc1)NC(=O)[C@H](CC(C)C)NC(=O)[C@H](C)NC(=O)CNC(=O)[C@H](CC(C)C)NC(=O)[C@@H](N)Cc1ccccc1)C(C)C)C(C)C)C(=O)O` [FLGALFKVVSKLL], the MIC was 27.9 µM (≈ 40 µg/mL) in [2], 9.76 µM (≈ 14 µg/mL) in experiment [3], 4.18 µM (≈ 6 µg/mL) in experiment [4] and 5.58 µM (≈ 8 µg/mL) in [5].
The corresponding values for `CC(C)C[C@H](NC(=O)[C@H](CC(C)C)NC(=O)[C@H](CCCCN)NC(=O)[C@H](CO)NC(=O)[C@H](CC(C)C)NC(=O)[C@H](C)NC(=O)[C@H](CCCCN)NC(=O)[C@@H](NC(=O)[C@H](CC(C)C)NC(=O)[C@H](C)NC(=O)CNC(=O)[C@H](CC(C)C)NC(=O)[C@@H](N)Cc1ccccc1)C(C)C)C(=O)O` [FLGALVKALSKLL] are 21.9 µM (≈ 30 µg/mL), 8.01 µM (≈ 11 µg/mL), 3.64 µM (≈ 5 µg/mL) and 5.1 µM (≈ 7 µg/mL).
For `CC[C@H](C)[C@H](NC(=O)CN)C(=O)NCC(=O)N[C@@H](CCCCN)C(=O)N[C@@H](Cc1ccccc1)C(=O)N[C@@H](CC(C)C)C(=O)N[C@@H](CCCCN)C(=O)N[C@@H](CO)C(=O)N[C@@H](CCCCN)C(=O)NCC(=O)N[C@@H](CCCCN)C(=O)N[C@@H](Cc1ccccc1)C(=O)NCC(=O)N[C@@H](CCCCN)C(=O)N[C@@H](C)C(=O)O` [GIGKFLKSKGKFGKA], the MIC in [1] is at least 192 µM.
Regarding `CC[C@H](C)[C@H](NC(=O)CN)C(=O)N[C@@H](Cc1cnc[nH]1)C(=O)N[C@@H](CC(=O)O)C(=O)N[C@@H](C)C(=O)N[C@@H](CC(C)C)C(=O)N[C@@H](CCCCN)C(=O)N[C@@H](Cc1ccc(O)cc1)C(=O)NCC(=O)N[C@@H](CCCCN)C(=O)N1CCC[C@H]1C(=O)N[C@@H](CO)C(N)=O` [GIHDALKYGKPS], the MIC in experiment [6] amounted to 20 µM (≈ 25.7 µg/mL); in experiment [7] it was 10 µM (≈ 12.8 µg/mL); in experiment [8], 20 µM (≈ 25.7 µg/mL); in experiment [9], 4 µM (≈ 5.14 µg/mL); in experiment [5] it was 20 µM (≈ 25.7 µg/mL).
For `CC[C@H](C)[C@H](NC(=O)CN)C(=O)N[C@@H](Cc1cnc[nH]1)C(=O)N[C@@H](CC(=O)O)C(=O)N[C@H](C(=O)N[C@@H](CC(C)C)C(=O)N[C@@H](CCCCN)C(=O)N[C@@H](Cc1ccc(O)cc1)C(=O)NCC(=O)N[C@@H](CCCCN)C(=O)N[C@@H](C)C(=O)N[C@@H](CO)C(N)=O)[C@@H](C)CC` [GIHDILKYGKAS], the minimum inhibitory concentration (MIC) in experiment [6] was at least 50 µM; in [7], 30 µM (≈ 39 µg/mL); in [8] it was 30 µM (≈ 39 µg/mL); in experiment [9], 10 µM (≈ 13 µg/mL); in experiment [5] it was 10 µM (≈ 13 µg/mL).
`CC[C@H](C)[C@H](NC(=O)CN)C(=O)N[C@@H](Cc1cnc[nH]1)C(=O)N[C@@H](CC(=O)O)C(=O)N[C@H](C(=O)N[C@@H](CC(C)C)C(=O)N[C@@H](CCCCN)C(=O)N[C@@H](Cc1ccc(O)cc1)C(=O)NCC(=O)N[C@@H](CCCCN)C(=O)N[C@@H](CCCCN)C(=O)N[C@@H](CO)C(N)=O)[C@@H](C)CC` [GIHDILKYGKKS]: the MIC in experiment [6] was determined as 10 µM (≈ 13.6 µg/mL); in experiment [7], 20 µM (≈ 27.2 µg/mL); in [8], 20 µM (≈ 27.2 µg/mL); in experiment [9], 20 µM (≈ 27.2 µg/mL); in [5], 30 µM (≈ 40.7 µg/mL).
With `CC[C@H](C)[C@H](NC(=O)[C@H](CCCCN)NC(=O)[C@H](CCCCN)NC(=O)[C@H](CC(C)C)NC(=O)[C@H](CCCCN)NC(=O)[C@H](CCC(=O)O)NC(=O)[C@H](CCCCN)NC(=O)[C@@H]1CCCN1C(=O)[C@H](CCCCN)NC(=O)[C@H](CC(N)=O)NC(=O)[C@H](CCCN=C(N)N)NC(=O)[C@@H]1CCCN1C(=O)[C@H](CCCCN)NC(=O)[C@H](CCCN=C(N)N)NC(=O)[C@H](CC(C)C)NC(=O)[C@H](CCCN=C(N)N)NC(=O)[C@H](CCCCN)NC(=O)[C@H](CCCN=C(N)N)NC(=O)[C@H](CC(C)C)NC(=O)CN)C(=O)O` [GLRKRLRKPRNKPKEKLKKI], the MIC in the experiment with Escherichia coli ML-35 is at least 64 µM; in the experiment with Bacillus megaterium, at least 64 µM; in experiment [10], above 64 µM; in experiment [11], above 64 µM; in experiment [12] it was above 64 µM; in [9] it was above 64 µM.
For `CC[C@H](C)[C@H](NC(=O)[C@@H](NC(=O)[C@H](CCCCN)NC(=O)[C@H](CCCCN)NC(=O)[C@H](Cc1ccccc1)NC(=O)[C@@H](N)CCCCN)C(C)C)C(=O)N[C@@H](Cc1c[nH]c2ccccc12)C(=O)N[C@@H](CCCCN)C(=O)N[C@@H](CO)C(=O)N[C@@H](Cc1ccccc1)C(=O)N[C@@H](CC(C)C)C(=O)O` [KFKKVIWKSFL], the MIC in the experiment with Escherichia coli MG1655 was at least 90 µM; with Bacillus subtilis 168 HT, at least 45 µM.
The corresponding values for `CC(C)C[C@H](NC(=O)[C@H](CC(C)C)NC(=O)[C@H](CCCN=C(N)N)NC(=O)[C@H](CCCN=C(N)N)NC(=O)[C@H](CCCCN)NC(=O)[C@H](C)NC(=O)[C@H](CCCCN)NC(=O)[C@@H](N)CCCCN)C(=O)N[C@@H](CCCCN)C(=O)N[C@@H](CCCCN)C(=O)O` [KKAKRRLLKK] are at least 101 µM and at least 101 µM.
Regarding `CC(C)C[C@H](NC(=O)[C@H](CC(=O)O)NC(=O)[C@H](CC(C)C)NC(=O)[C@H](CCCCN)NC(=O)[C@H](CC(C)C)NC(=O)[C@H](CC(=O)O)NC(=O)[C@H](CC(C)C)NC(=O)[C@H](CCCCN)NC(=O)[C@H](CC(C)C)NC(=O)[C@H](CC(=O)O)NC(=O)[C@H](CC(C)C)NC(=O)[C@@H](N)CCCCN)C(=O)O` [KLDLKLDLKLDL], the minimum inhibitory concentration (MIC) is at least 100 µM in experiment [13], above 100 µM in experiment [10], at least 100 µM in experiment [14] and above 100 µM in [12].
For the compound `CC[C@H](C)[C@H](NC(=O)CNC(=O)[C@@H](NC(=O)[C@H](CCCCN)NC(=O)[C@@H](NC(=O)CNC(=O)[C@H](CC(C)C)NC(=O)[C@H](Cc1c[nH]c2ccccc12)NC(=O)[C@H](CCCN=C(N)N)NC(=O)[C@@H](N)CC(C)C)[C@@H](C)O)C(C)C)C(=O)N[C@@H](CC(C)C)C(=O)N[C@@H](CCCCN)C(=O)O` [LRWLGTKVGILK], the MIC against Escherichia coli MG1655 and against Bacillus subtilis 168 HT was at least 92 µM throughout.
With `CC[C@H](C)[C@H](NC(=O)CNC(=O)[C@@H](N)Cc1c[nH]c2ccccc12)C(=O)N[C@@H](Cc1cnc[nH]1)C(=O)N[C@@H](CCCN=C(N)N)C(=O)N[C@H](C(=O)N[C@@H](CC(C)C)C(=O)N[C@@H](CCCCN)C(=O)N[C@@H](Cc1ccc(O)cc1)C(=O)NCC(=O)N[C@@H](CCCCN)C(=O)N1CCC[C@H]1C(=O)N[C@@H](CO)C(=O)O)[C@@H](C)CC` [WGIHRILKYGKPS], the minimal inhibitory concentration (MIC) is 8 µM (≈ 12.4 µg/mL) in experiment [6]; 12 µM (≈ 18.7 µg/mL) in experiment [7]; 12 µM (≈ 18.7 µg/mL) in experiment [8]; 10 µM (≈ 15.5 µg/mL) in experiment [9]; 8 µM (≈ 12.4 µg/mL) in experiment [5].
